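Growth conditions: 96-well plates. Treatment: test compound, 48 hours, 5 concentrations. Analysis: linear interpolation between bracketing concentrations; unreached endpoints set to highest concentration. Definition used: TGI = concentration required for complete inhibition of growth.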
Tests used:
Assay in all cases: NCI anticancer screen, dose series, 48 h
[1] = test system: SNB-75 CNS
[2] = test system: 786-0 renal
[3] = test system: NCI-H23 lung
[4] = test system: NCI-H226 lung
[5] = test system: BT-549 breast
[6] = test system: HCC-2998 colon
[7] = test system: UACC-257 melanoma
[8] = test system: COLO 205 colon
[9] = test system: SF-539 CNS
[10] = test system: NCI/ADR-RES ovarian
[11] = test system: MDA-N
[12] = test system: UACC-62 melanoma
[13] = test system: T-47D breast
[14] = test system: UO-31 renal
[15] = test system: CAKI-1 renal
[16] = test system: NCI-H460 lung
[17] = test system: ACHN renal
[18] = test system: MCF7 breast
[19] = test system: MALME-3M melanoma
[20] = test system: PC-3 prostate
[21] = test system: EKVX NSCLC
[22] = test system: TK-10 renal
[23] = test system: M14 melanoma
[24] = test system: OVCAR-5 ovarian
[25] = test system: SK-MEL-5 melanoma
[26] = test system: OVCAR-4 ovarian
[27] = test system: SK-MEL-2 melanoma
[28] = test system: HCT-116 colon
[29] = test system: SN12C renal
[30] = test system: SK-OV-3 ovarian
[31] = test system: RXF 393 renal
[32] = test system: SF-268 CNS
[33] = test system: DU-145 prostate
[34] = test system: HCT-15 colon
[35] = test system: SK-MEL-28 melanoma
[36] = test system: A549 NSCLC
[37] = test system: U251 CNS
[38] = test system: MOLT-4 leukemia
[39] = test system: MDA-MB-231 breast
[40] = test system: MDA-MB-435
[41] = test system: SF-295 CNS
[42] = test system: NCI-H522 lung
[43] = test system: IGROV1 ovarian
[44] = test system: RPMI-8226 leukemia
[45] = test system: SNB-19 CNS
[46] = test system: A498 renal
[47] = test system: LOX IMVI melanoma
[48] = test system: K-562 leukemia
[49] = test system: OVCAR-8 ovarian
[50] = test system: SW-620 colon
[51] = test system: HOP-62 NSCLC
[52] = test system: KM12 colon
[53] = test system: OVCAR-3 ovarian
[54] = test system: CCRF-CEM leukemia
[55] = test system: HL-60(TB) leukemia
[56] = test system: SR leukemia
[57] = test system: HS 578T breast
[58] = test system: HOP-92 NSCLC
[59] = test system: HT29 colon

## NCC(=O)N1CCN(c2nc(N3CCCC3)c3nc(Cl)c(NCc4ccccc4)nc3n2)CC1
[1]
  TGI: 3.16 µM
[2]
  TGI: 3.11 µM
[3]
  TGI: 3.63 µM
[4]
  TGI: 19 µM
[5]
  TGI: 3.74 µM
[6]
  TGI: 3.03 µM
[7]
  TGI: 3.24 µM
[8]
  TGI: 3.19 µM
[9]
  TGI: 3.58 µM
[10]
  TGI: 36.8 µM
[11]
  TGI: 3.34 µM
[12]
  TGI: 3.24 µM
[13]
  TGI: 3.03 µM
[14]
  TGI: 3.06 µM
[15]
  TGI: 6.4 µM
[16]
  TGI: 3.59 µM
[17]
  TGI: 4.34 µM
[18]
  TGI: 3.38 µM
[19]
  TGI: 3.73 µM
[20]
  TGI: 7.33 µM
[21]
  TGI: 3.81 µM
[22]
  TGI: 3.73 µM
[23]
  TGI: 3.15 µM
[24]
  TGI: 9.87 µM
[25]
  TGI: 3.17 µM
[26]
  TGI: 4.79 µM
[27]
  TGI: 3.42 µM
[28]
  TGI: 3.23 µM
[29]
  TGI: 3.34 µM
[30]
  TGI: 3.54 µM
[31]
  TGI: 2.89 µM
[32]
  TGI: 4.41 µM
[33]
  TGI: 6.82 µM
[34]
  TGI: 3.67 µM

## Nc1nc(N)c2nnn(C[C@H]3CC[C@@H](CO)C3)c2n1
[1]
  TGI: > 100 µM
[2]
  TGI: > 100 µM
[3]
  TGI: > 100 µM
[4]
  TGI: > 100 µM
[35]
  TGI: > 100 µM
[36]
  TGI: > 100 µM
[37]
  TGI: > 100 µM
[38]
  TGI: > 100 µM
[39]
  TGI: > 100 µM
[40]
  TGI: > 100 µM
[5]
  TGI: > 100 µM
[6]
  TGI: > 100 µM
[41]
  TGI: > 100 µM
[7]
  TGI: > 100 µM
[8]
  TGI: > 100 µM
[9]
  TGI: > 100 µM
[10]
  TGI: > 100 µM
[42]
  TGI: > 100 µM
[11]
  TGI: > 100 µM
[12]
  TGI: > 100 µM
[43]
  TGI: > 100 µM
[44]
  TGI: > 100 µM
[14]
  TGI: > 100 µM
[15]
  TGI: > 100 µM
[16]
  TGI: > 100 µM
[45]
  TGI: > 100 µM
[46]
  TGI: > 100 µM
[47]
  TGI: > 100 µM
[17]
  TGI: > 100 µM
[18]
  TGI: > 100 µM
[48]
  TGI: > 100 µM
[19]
  TGI: > 100 µM
[20]
  TGI: > 100 µM
[49]
  TGI: > 100 µM
[50]
  TGI: > 100 µM
[51]
  TGI: > 100 µM
[21]
  TGI: > 100 µM
[22]
  TGI: > 100 µM
[23]
  TGI: > 100 µM
[24]
  TGI: > 100 µM
[52]
  TGI: > 100 µM
[53]
  TGI: > 100 µM
[54]
  TGI: > 100 µM
[28]
  TGI: > 100 µM
[55]
  TGI: > 100 µM
[56]
  TGI: > 100 µM
[57]
  TGI: > 100 µM
[29]
  TGI: 93.3 µM
[58]
  TGI: > 100 µM
[30]
  TGI: > 100 µM
[31]
  TGI: > 100 µM
[32]
  TGI: > 100 µM
[33]
  TGI: > 100 µM
[59]
  TGI: > 100 µM
[34]
  TGI: > 100 µM
